Earlier results as cited in publication PMC9762682, “Tocotrienols: Exciting Biological and Pharmacological Properties of Tocotrienols and Naturally Occurring Compounds, Part II” (Annals of clinical case reports, 2022).
Where two headings read alike, the source gives them in different places.

Columns and labels:
TNF-α = details: LPS-induced macrophages of wild type (C57BL/6) control group
plasma miRNAs = tested on: plasma miRNAs; set-up: method as in ref 14 = [14]; PMID 27493840; doi:10.4172/2155-9880.1000434; 14. Qureshi AA , Khan DA , Saleem S , Silswal N , Trias AM , Tan B , Pharmacokinetics and bioavailability of Annatto δ-tocotrienol in healthy fed subjects . J Clin Exp Cardiol . 2015; 6 : 11 . 10.417; details: for plasma miR122a / plasma miR-1 / plasma miR-7 / plasma miR-9 / plasma miR-15b / plasma miR-17-5p / plasma miR-19a / plasma miR-19b / plasma miR-24 / plasma miR-26a / plasma miR-34a / plasma miR-106a / plasma miR-107 / plasma miR-132 / plasma miR-143 / plasma miR-145 / plasma miR-148a / plasma miR-181a / plasma miR-182 / plasma miR-192 / plasma miR-194 / plasma miR-196a / plasma miR-199a / plasma miR-204 / plasma miR-205 / plasma miR-222 / plasma miR-342: 0-h = 100
[1] = tested on: plasma TNF-α, IL-2, IL-4, IL-6, IL-8, IL-10; set-up: method as in earlier work; details: 250 mg/d + AHA Step-1 diet; baseline = 100
Melanoma cells = tested on: Melanoma cells; set-up: method as in PMID 29606130
Hela cells = tested on: Hela cells; set-up: method as in PMID 29606130; value at effective dose: unit not given here;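 for IC50: anti-proliferation of cancer cells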
[2] = δ-tocotrienol treatment, pharmacokinetic study

CC(C)=CCC/C(C)=C/CC/C(C)=C/CC[C@]1(C)CCc2cc(O)cc(C)c2O1 [δ-Tocotrienol]
effect on secretion of TNF-α (TNF-α): inhibition
plasma miR122a (plasma miRNAs; 3-h, 125 mg δ-tocotrienol): 166%
plasma miR-1 (plasma miRNAs; 3-h, 125 mg δ-tocotrienol): 78%
plasma miR-7 (plasma miRNAs; 3-h, 125 mg δ-tocotrienol): 94%
plasma miR-9 (plasma miRNAs; 3-h, 125 mg δ-tocotrienol): 88%
plasma miR-15b (plasma miRNAs; 3-h, 125 mg δ-tocotrienol): 110%
plasma miR-17-5p (plasma miRNAs; 3-h, 125 mg δ-tocotrienol): 106%
plasma miR-19a (plasma miRNAs; 3-h, 125 mg δ-tocotrienol): 95%
plasma miR-19b (plasma miRNAs; 3-h, 125 mg δ-tocotrienol): 91%
plasma miR-24 (plasma miRNAs; 3-h, 125 mg δ-tocotrienol): 77%
plasma miR-26a (plasma miRNAs; 3-h, 125 mg δ-tocotrienol): 80%
plasma miR-34a (plasma miRNAs; 3-h, 125 mg δ-tocotrienol): 72%
plasma miR-106a (plasma miRNAs; 3-h, 125 mg δ-tocotrienol): 74%
plasma miR-107 (plasma miRNAs; 3-h, 125 mg δ-tocotrienol): 156%
plasma miR-132 (plasma miRNAs; 3-h, 125 mg δ-tocotrienol): 199%
plasma miR-143 (plasma miRNAs; 3-h, 125 mg δ-tocotrienol): 63%
plasma miR-145 (plasma miRNAs; 3-h, 125 mg δ-tocotrienol): 54%
plasma miR-148a (plasma miRNAs; 3-h, 125 mg δ-tocotrienol): 208%
plasma miR-181a (plasma miRNAs; 3-h, 125 mg δ-tocotrienol): 48%
plasma miR-182 (plasma miRNAs; 3-h, 125 mg δ-tocotrienol): 76%
plasma miR-192 (plasma miRNAs; 3-h, 125 mg δ-tocotrienol): 28%
plasma miR-194 (plasma miRNAs; 3-h, 125 mg δ-tocotrienol): 50%
plasma miR-196a (plasma miRNAs; 3-h, 125 mg δ-tocotrienol): 65%
plasma miR-199a (plasma miRNAs; 3-h, 125 mg δ-tocotrienol): 81%
plasma miR-204 (plasma miRNAs; 3-h, 125 mg δ-tocotrienol): 45%
plasma miR-205 (plasma miRNAs; 3-h, 125 mg δ-tocotrienol): 39%
plasma miR-222 (plasma miRNAs; 3-h, 125 mg δ-tocotrienol): 55%
plasma miR-342 (plasma miRNAs; 3-h, 125 mg δ-tocotrienol): 70%
plasma miR122a (plasma miRNAs; 6-h, 500 mg δ-tocotrienol): 196%
plasma miR-1 (plasma miRNAs; 6-h, 500 mg δ-tocotrienol): 63%
plasma miR-7 (plasma miRNAs; 6-h, 500 mg δ-tocotrienol): 85%
plasma miR-9 (plasma miRNAs; 6-h, 500 mg δ-tocotrienol): 44%
plasma miR-15b (plasma miRNAs; 6-h, 500 mg δ-tocotrienol): 132%
plasma miR-17-5p (plasma miRNAs; 6-h, 500 mg δ-tocotrienol): 168%
plasma miR-19a (plasma miRNAs; 6-h, 500 mg δ-tocotrienol): 36%
plasma miR-19b (plasma miRNAs; 6-h, 500 mg δ-tocotrienol): 70%
plasma miR-24 (plasma miRNAs; 6-h, 500 mg δ-tocotrienol): 45%
plasma miR-26a (plasma miRNAs; 6-h, 500 mg δ-tocotrienol): 62%
plasma miR-34a (plasma miRNAs; 6-h, 500 mg δ-tocotrienol): 59%
plasma miR-106a (plasma miRNAs; 6-h, 500 mg δ-tocotrienol): 56%
plasma miR-107 (plasma miRNAs; 6-h, 500 mg δ-tocotrienol): 173%
plasma miR-132 (plasma miRNAs; 6-h, 500 mg δ-tocotrienol): 145%
plasma miR-143 (plasma miRNAs; 6-h, 500 mg δ-tocotrienol): 36%
plasma miR-145 (plasma miRNAs; 6-h, 500 mg δ-tocotrienol): 44%
plasma miR-148a (plasma miRNAs; 6-h, 500 mg δ-tocotrienol): 233%
plasma miR-181a (plasma miRNAs; 6-h, 500 mg δ-tocotrienol): 21%
plasma miR-182 (plasma miRNAs; 6-h, 500 mg δ-tocotrienol): 64%
plasma miR-192 (plasma miRNAs; 6-h, 500 mg δ-tocotrienol): 21%
plasma miR-194 (plasma miRNAs; 6-h, 500 mg δ-tocotrienol): 21%
plasma miR-196a (plasma miRNAs; 6-h, 500 mg δ-tocotrienol): 43%
plasma miR-199a (plasma miRNAs; 6-h, 500 mg δ-tocotrienol): 65%
plasma miR-204 (plasma miRNAs; 6-h, 500 mg δ-tocotrienol): 41%
plasma miR-205 (plasma miRNAs; 6-h, 500 mg δ-tocotrienol): 45%
plasma miR-222 (plasma miRNAs; 6-h, 500 mg δ-tocotrienol): 51%
plasma miR-342 (plasma miRNAs; 6-h, 500 mg δ-tocotrienol): 52%
expression of miR-107, miR-122a, and miR-132 (plasma miRNAs; [2]): up-regulated
gene expression of miR-34a (plasma miRNAs; [2]): down-regulated
plasma IL-2 [1]: 55.5 ± 0.71
plasma IL-4 [1]: 49.0 ± 1.41
plasma IL-6 [1]: 38.5 ± 2.21
plasma IL-8 [1]: 43.5 ± 0.71
plasma IL-10 [1]: 63.5 ± 2.12
plasma TNF-α [1]: 48.5 ± 0.7
IC50 (Melanoma cells): 10 µM
effective dose (Melanoma cells): 20 µM
percentage of control at IC50 dose (Melanoma cells): 50%
percentage of control at effective dose (Melanoma cells): 37%
IC50 (Hela cells): 5 µM
percentage of control at IC50 dose (Hela cells): 45%
effective dose (Hela cells; 48 h): 20 µM
percentage of control at effective dose (Hela cells; 48 h): 18%
value at effective dose (Hela cells; 48 h): 8.3 ± 2.1
